According to ChEMBL document CHEMBL5241106, “Discovery of a Dual Tubulin and Poly(ADP-Ribose) Polymerase-1 Inhibitor by Structure-Based Pharmacophore Modeling, Virtual Screening, Molecular Docking, and Biological Evaluation” (J Med Chem, 2021):
Calls of active or inactive are those of the source. The calls are words filed in the database; no cut-off is given here.

Legend:
[1] = tested on: Tubulin; assay: Inhibition of tubulin polymerization (unknown origin) by turbidimetric analysis; format: protein-complex assay, Homo sapiens
[2] = molecular target: Tubulin (Homo sapiens) (UniProt P68371+Q9H4B7+P0DPH7+P68366+Q13509+Q71U36+P04350+Q3ZCM7+P07437+P68363+Q9BQE3+Q6PEY2+Q13885+Q9BVA1+Q9BUF5); assay: Inhibition of tubulin polymerization (unknown origin) at 10 uM by turbidimetric analysis; format: protein-complex assay
[3] = molecular target: Poly [ADP-ribose] polymerase 1 (Homo sapiens, UniProt P09874); assay: Inhibition of PARP1 (unknown origin) using [3H]NAD+ as substrate incubated for 15 mins by scintillation counting analysis
Poly [ADP-ribose] polymerase 1, sequence (P09874 whole entry): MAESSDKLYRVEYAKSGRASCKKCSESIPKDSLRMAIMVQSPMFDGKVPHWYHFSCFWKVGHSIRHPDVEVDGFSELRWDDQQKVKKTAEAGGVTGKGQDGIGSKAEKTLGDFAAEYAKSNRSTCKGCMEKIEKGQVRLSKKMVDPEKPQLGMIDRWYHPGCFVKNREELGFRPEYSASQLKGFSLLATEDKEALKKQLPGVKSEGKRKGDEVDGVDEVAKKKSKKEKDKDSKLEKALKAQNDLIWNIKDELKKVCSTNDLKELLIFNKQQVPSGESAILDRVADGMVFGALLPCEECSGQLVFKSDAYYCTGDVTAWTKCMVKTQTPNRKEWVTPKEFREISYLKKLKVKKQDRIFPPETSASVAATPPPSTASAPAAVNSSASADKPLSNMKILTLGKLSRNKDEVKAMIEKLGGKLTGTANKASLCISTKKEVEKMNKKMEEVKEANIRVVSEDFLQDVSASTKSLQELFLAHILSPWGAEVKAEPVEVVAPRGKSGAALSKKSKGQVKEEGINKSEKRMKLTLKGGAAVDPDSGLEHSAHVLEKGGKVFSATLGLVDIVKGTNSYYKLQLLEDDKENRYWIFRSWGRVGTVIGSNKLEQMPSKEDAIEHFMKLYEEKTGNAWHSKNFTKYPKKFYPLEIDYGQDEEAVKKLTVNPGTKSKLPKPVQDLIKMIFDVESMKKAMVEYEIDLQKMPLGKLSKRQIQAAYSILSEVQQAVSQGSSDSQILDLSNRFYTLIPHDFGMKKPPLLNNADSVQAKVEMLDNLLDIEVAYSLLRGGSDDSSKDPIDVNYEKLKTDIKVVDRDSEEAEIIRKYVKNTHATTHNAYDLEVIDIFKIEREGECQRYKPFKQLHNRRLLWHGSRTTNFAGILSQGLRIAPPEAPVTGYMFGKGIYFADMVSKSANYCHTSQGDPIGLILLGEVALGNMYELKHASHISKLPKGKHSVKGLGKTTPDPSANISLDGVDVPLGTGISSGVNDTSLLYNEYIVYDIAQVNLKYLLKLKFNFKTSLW

[4] = tested on: MDA-MB-231; assay: Cytotoxicity against human MDA-MB-231 cells assessed as inhibition of cell growth incubated for 72 hrs by MTT assay; format: functional, cell-based
[5] = Cytotoxicity against human MCF-10A cells assessed as inhibition of cell growth incubated for 72 hrs by MTT assay; format: toxicity, cell-based
[6] = tested on: MDA-MB-231; assay: Induction of apoptosis in human MDA-MB-231 cells incubated for 24 hrs by DAPI staining based confocal laser microscopy; format: functional, cell-based
[7] = tested on: MDA-MB-231; assay: Induction of apoptosis in human MDA-MB-231 cells assessed as viable cells at 2.5 uM incubated for 48 hrs by Annexin V-FITC/PI staining based flow cytometry (reference value: 91.4%); format: functional; conditions: read-out: Activity
[8] = tested on: MDA-MB-231; assay: Induction of apoptosis in human MDA-MB-231 cells assessed as early apoptotic cells at 2.5 uM incubated for 48 hrs by Annexin V-FITC/PI staining based flow cytometry (reference value: 1.71%); format: functional
[9] = tested on: MDA-MB-231; assay: Induction of apoptosis in human MDA-MB-231 cells assessed as late apoptotic cells at 2.5 uM incubated for 48 hrs by Annexin V-FITC/PI staining based flow cytometry (reference value: 5.06%); format: functional
[10] = tested on: MDA-MB-231; assay: Induction of apoptosis in human MDA-MB-231 cells assessed as necrotic cells at 2.5 uM incubated for 48 hrs by Annexin V-FITC/PI staining based flow cytometry (reference value: 1.86%); format: functional

| SMILES | inhibition [2] [%] | also measured |
| --- | --- | --- |
| CN(C)C(=O)Cc1ccc2[nH]c(=O)c3ccccc3c2c1 |  | IC50 [1]: Not Active |
| O=c1[nH]c(/C=C/c2cc(Br)ccc2O)nc2ccccc12 | 63 |  |
| O=c1[nH]c(/C=C/c2ccc([N+](=O)[O-])cc2)nc2ccccc12 | 61 |  |
| COc1ccc(-c2nc(O)c3ccccc3n2)cc1 | 47 |  |
| Cc1cccc(-c2nc(O)c3ccccc3n2)c1 | 43 |  |
| Cc1ccc(-c2nc3ccccc3c(=O)[nH]2)cc1 | 45 |  |
| O=c1[nH]c(/C=C/c2cccc([N+](=O)[O-])c2)nc2ccccc12 | 65 |  |
| O=c1[nH]c(/C=C/c2ccccc2)nc2ccccc12 | 82 |  |
| COc1ccc(-c2nc3ccccc3c(=O)[nH]2)cc1C | 49 |  |
| COc1cc(/C=C/c2nc(O)c3ccccc3n2)ccc1O | 69 |  |
| COc1cc2c(c(OC)c1OC)-c1ccc(OC)c(=O)cc1[C@@H](NC(C)=O)CC2 [COLCHICINE] |  | IC50 [3]: Not Active; Activity [4]: Active; IC50 at 72 h [5]: 6 nM; Activity [6]: Active; viability at 2.5 µM [7]: 88%; Activity [8]: 1.89%; Activity [9]: 8.1%; Activity [10]: 2.04% |
